According to ChEMBL document CHEMBL1141065, “Inhibition of mandelate racemase by the substrate-intermediate-product analogue 1,1-diphenyl-1-hydroxymethylphosphonate” (Bioorg Med Chem Lett, 2005):

Columns and labels:
Mandelate racemase [1] = target: T1, Mandelate racemase (Pseudomonas putida, UniProt P11444); test: Inhibitory activity against Mandelate racemase at pH 6.3 at 25 degree C
T1 sequence (P11444 whole entry): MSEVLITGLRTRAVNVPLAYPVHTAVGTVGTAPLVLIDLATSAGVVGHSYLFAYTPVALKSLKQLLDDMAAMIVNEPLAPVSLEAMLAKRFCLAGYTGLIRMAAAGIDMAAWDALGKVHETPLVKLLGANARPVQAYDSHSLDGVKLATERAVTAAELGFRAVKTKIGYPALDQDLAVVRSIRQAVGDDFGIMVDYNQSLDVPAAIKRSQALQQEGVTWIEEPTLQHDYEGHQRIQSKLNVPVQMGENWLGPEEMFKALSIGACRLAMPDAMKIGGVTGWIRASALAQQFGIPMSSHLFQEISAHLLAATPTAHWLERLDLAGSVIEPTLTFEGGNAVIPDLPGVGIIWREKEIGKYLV

Mandelate racemase [2] = target: T1, Mandelate racemase; test: Inhibitory activity against Mandelate racemase at pH 8.7 at 25 degree C
Mandelate racemase [3] = target: T1, Mandelate racemase; test: Inhibitory activity against Mandelate racemase at pH 7.5 at 25 degree C

Ki (Mandelate racemase [1]): 5.91 mM
Ki (Mandelate racemase [2]): 6.93 mM
Ki (Mandelate racemase [3]): 1.41 mM
SMILES: O=P(O)(O)C(O)(c1ccccc1)c1ccccc1
